The results in this text go back to patent US12195482B1 (Arcus Biosciences, Inc., priority 2022, dated 2025).

The target in assay [1] is T1, Axl (Homo sapiens, UniProt P30530).
T1 sequence (P30530 26-894): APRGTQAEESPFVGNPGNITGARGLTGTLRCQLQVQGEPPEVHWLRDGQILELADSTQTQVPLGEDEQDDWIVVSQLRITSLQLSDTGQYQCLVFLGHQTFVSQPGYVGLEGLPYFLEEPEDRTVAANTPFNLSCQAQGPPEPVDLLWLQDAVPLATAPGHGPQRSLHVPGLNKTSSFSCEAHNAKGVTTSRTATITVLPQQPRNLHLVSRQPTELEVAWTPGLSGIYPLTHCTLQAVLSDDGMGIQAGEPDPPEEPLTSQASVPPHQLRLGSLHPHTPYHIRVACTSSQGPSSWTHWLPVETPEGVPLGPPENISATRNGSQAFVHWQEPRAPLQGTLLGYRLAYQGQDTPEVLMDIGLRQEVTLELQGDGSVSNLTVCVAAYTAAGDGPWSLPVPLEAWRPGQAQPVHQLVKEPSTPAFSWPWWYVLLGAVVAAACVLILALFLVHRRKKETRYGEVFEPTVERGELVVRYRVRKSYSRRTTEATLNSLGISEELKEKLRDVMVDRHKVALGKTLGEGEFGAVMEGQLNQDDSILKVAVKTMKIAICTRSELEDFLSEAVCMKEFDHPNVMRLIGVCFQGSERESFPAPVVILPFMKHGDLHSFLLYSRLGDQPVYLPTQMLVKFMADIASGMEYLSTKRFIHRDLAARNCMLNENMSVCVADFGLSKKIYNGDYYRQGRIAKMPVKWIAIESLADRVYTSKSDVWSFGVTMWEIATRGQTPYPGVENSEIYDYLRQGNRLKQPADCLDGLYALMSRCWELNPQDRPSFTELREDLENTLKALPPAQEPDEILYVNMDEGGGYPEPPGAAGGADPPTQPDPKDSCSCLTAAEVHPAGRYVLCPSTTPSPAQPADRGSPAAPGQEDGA
Briefly: Biochemical potency, HTRF KinEASE-TK kinase assay. Also on record: purchased Invitrogen. Particulars: 5 nM AXL, 700 μM ATP. A digest of the protocol: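 Phosphorylation of a biotinylated tyrosine-kinase peptide (800 nM) by AXL (5 nM) or TYRO3/MER (1 nM) is measured at 700 µM ATP after 2 h at room temperature, following 1 h enzyme–compound preincubation. Signal is the time-resolved FRET ratio, converted to percent activity.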
(TR-FRET usually uses a lanthanide donor and a delayed reading to cut background.)

In assay [2] the target is T2, p-AXL (Homo sapiens, UniProt P30530).
T2 construct: expressed in transfected cells; host or cells: HEK293T
T2 sequence (P30530 26-894): T1 sequence (P30530 26-894)
Briefly: Axl phosphorylation inhibition ELISA in HEK293T cells transfected with NanoLuc-tagged AXL. The format is cell-based. Particulars: 1 h compound incubation, media (OptiMEM). A digest of the protocol:
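HEK293T cells transiently transfected one day earlier with NanoLuc-tagged AXL were exposed to 22-point 2-fold compound dilutions for 1 h at 37° C (70,000 cells/well), then lysed. Lysates captured on anti-phospho-tyrosine coated plates for 2 h; bound p-AXL read by NanoLuc luminescence; IC50 from 4-parameter logistic fit.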

The IC50 is the concentration that gives 50% inhibition. Higher therefore signals lower potency. Turning to `Cc1ccccc1-c1ccc(-c2c[nH]c3ncc(-c4ccc5c(c4)CC[C@@H](N4C6COCC4C6)CC5)cc23)nc1` [Example 97, 6-[(7S)-2-{3-[5-(2-Methylphenyl)pyridin-2-yl]-1H-pyrrolo[2,3-b]pyridin-5-yl}-6,7,8,9-tetrahydro-5H-benzo[7]annulen-7-yl]-3-oxa-6-azabicyclo[3.1.1]heptane], the IC50 in assay [1] was under 100 nM; in assay [2], over 1000 nM.
Regarding `Cn1cnnc1-c1ccc(-c2n[nH]c3ncc(-c4ccc5c(c4)CC[C@@H](N4C6COCC4C6)CC5)cc23)cc1` [Example 169, 6-[(7S)-2-{3-[4-(4-Methyl-4H-1,2,4-triazol-3-yl)phenyl]-1H-pyrazolo[3,4-b]pyridin-5-yl}-6,7,8,9-tetrahydro-5H-benzo[7]annulen-7-yl]-3-oxa-6-azabicyclo[3.1.1]heptane], the IC50 in assay [1] and in assay [2] was under 100 nM in each case.
Turning to `CS(=O)(=O)c1cccnc1-c1ccc(-c2n[nH]c3ncc(-c4ccc5c(c4)CC[C@@H](N4C6COCC4C6)CC5)cc23)cc1` [Example 101, 6-[(7S)-2-{3-[4-(3-Methanesulfonylpyridin-2-yl)phenyl]-1H-pyrazolo[3,4-b]pyridin-5-yl}-6,7,8,9-tetrahydro-5H-benzo[7]annulen-7-yl]-3-oxa-6-azabicyclo[3.1.1]heptane], the IC50 in assay [1] and in assay [2] was under 100 nM throughout.
For the compound `O=C(c1cccnc1-c1ccc(-c2c[nH]c3ncc(-c4ccc5c(c4)CC[C@@H](N4C6COCC4C6)CC5)cc23)cc1)N1CCCC1` [Example 171, 6-[(7S)-2-(3-{4-[3-(Pyrrolidine-1-carbonyl)pyridin-2-yl]phenyl}-1H-pyrrolo[2,3-b]pyridin-5-yl)-6,7,8,9-tetrahydro-5H-benzo[7]annulen-7-yl]-3-oxa-6-azabicyclo[3.1.1]heptane], the IC50 in assay [1] and in assay [2] was under 100 nM in each case.
For the compound `Cc1ccc(-c2ccc(-c3n[nH]c4ncc(-c5ccc6c(c5)CC[C@@H](N5C7COCC5C7)CC6)cc34)cc2)nc1` [Example 115, 6-[(7S)-2-{3-[4-(5-Methylpyridin-2-yl)phenyl]-1H-pyrazolo[3,4-b]pyridin-5-yl}-6,7,8,9-tetrahydro-5H-benzo[7]annulen-7-yl]-3-oxa-6-azabicyclo[3.1.1]heptane], the results for the IC50 in assay [1] and in assay [2] were under 100 nM and 100 to 1000 nM, respectively.
Turning to `CS(=O)(=O)c1cccnc1-c1ccc(-c2c[nH]c3ncc(-c4ccc5c(c4)CC[C@@H](N4C6COCC4C6)CC5)cc23)cc1` [Example 102, 6-[(7S)-2-{3-[4-(3-Methanesulfonylpyridin-2-yl)phenyl]-1H-pyrrolo[2,3-b]pyridin-5-yl}-6,7,8,9-tetrahydro-5H-benzo[7]annulen-7-yl]-3-oxa-6-azabicyclo[3.1.1]heptane], the IC50 in assay [1] and in assay [2] was under 100 nM each time.
`CCc1cccnc1-c1ccc(-c2n[nH]c3ncc(-c4ccc5c(c4)CC[C@@H](N4C6COCC4C6)CC5)cc23)cc1` [Example 182, 6-[(7S)-2-{3-[4-(3-Ethylpyridin-2-yl)phenyl]-1H-pyrazolo[3,4-b]pyridin-5-yl}-6,7,8,9-tetrahydro-5H-benzo[7]annulen-7-yl]-3-oxa-6-azabicyclo[3.1.1]heptane]: the IC50 in assay [1] and in assay [2] was under 100 nM throughout.
As for `CCOc1cccnc1-c1ccc(-c2n[nH]c3ncc(-c4ccc5c(c4)CC[C@@H](N4C6COCC4C6)CC5)cc23)cc1` [Example 181, 6-[(7S)-2-{3-[4-(3-Ethoxypyridin-2-yl)phenyl]-1H-pyrazolo[3,4-b]pyridin-5-yl}-6,7,8,9-tetrahydro-5H-benzo[7]annulen-7-yl]-3-oxa-6-azabicyclo[3.1.1]heptane], the IC50 in assay [1] was under 100 nM; in assay [2], 100 to 1000 nM.
Take `CN(C(=O)C1CC1)c1cccnc1-c1ccc(-c2n[nH]c3ncc(-c4ccc5c(c4)CC[C@@H](N4C6COCC4C6)CC5)cc23)cc1` [Example 128, N-Methyl-N-[2-(4-{5-[(7S)-7-{3-oxa-6-azabicyclo[3.1.1]heptan-6-yl}-6,7,8,9-tetrahydro-5H-benzo[7]annulen-2-yl]-1H-pyrazolo[3,4-b]pyridin-3-yl}phenyl)pyridin-3-yl]cyclopropanecarboxamide]: the IC50 in assay [1] and in assay [2] was under 100 nM in each case.
In the case of `O=C1CCCN1c1cccnc1-c1ccc(-c2c[nH]c3ncc(-c4ccc5c(c4)CC[C@@H](N4C6COCC4C6)CC5)cc23)cc1` [Example 7, 1-[2-(4-{5-[(7S)-7-{3-Oxa-6-azabicyclo[3.1.1]heptan-6-yl}-6,7,8,9-tetrahydro-5H-benzo[7]annulen-2-yl]-1H-pyrrolo[2,3-b]pyridin-3-yl}phenyl)pyridin-3-yl]pyrrolidin-2-one], the IC50 in assay [1] and in assay [2] was under 100 nM throughout.
On to `CC(C)(O)c1ccccc1-c1ccc(-c2c[nH]c3ncc(-c4ccc5c(c4)CC[C@@H](N4C6COCC4C6)CC5)cc23)cn1` [Example 114, 2-[2-(5-{5-[(7S)-7-{3-Oxa-6-azabicyclo[3.1.1]heptan-6-yl}-6,7,8,9-tetrahydro-5H-benzo[7]annulen-2-yl]-1H-pyrrolo[2,3-b]pyridin-3-yl}pyridin-2-yl)phenyl]propan-2-ol], for which the IC50 in assay [1] and in assay [2] was under 100 nM in each case.
For `C[C@@H]1CCCN1[C@@]1(C)CCc2ccc(-c3cnc4[nH]cc(-c5ccc(-c6ccccn6)cc5)c4c3)cc2CC1` [Example 156, 2-(4-{5-[(7S)-7-Methyl-7-[(2R)-2-methylpyrrolidin-1-yl]-6,7,8,9-tetrahydro-5H-benzo[7]annulen-2-yl]-1H-pyrrolo[2,3-b]pyridin-3-yl}phenyl)pyridine], the IC50 is under 100 nM in assay [1] and 100 to 1000 nM in assay [2].
Consider `O=C(c1cccnc1-c1ccc(-c2n[nH]c3ncc(-c4ccc5c(c4)CC[C@@H](N4C6COCC4C6)CC5)cc23)cc1)N1CCCC1` [Example 4, 6-[(7S)-2-(3-{4-[3-(Pyrrolidine-1-carbonyl)pyridin-2-yl]phenyl}-1H-pyrazolo[3,4-b]pyridin-5-yl)-6,7,8,9-tetrahydro-5H-benzo[7]annulen-7-yl]-3-oxa-6-azabicyclo[3.1.1]heptane], for which the figures for the IC50 in assay [1] and in assay [2] were under 100 nM and 100 to 1000 nM, respectively.
Consider `Cn1ccnc1-c1ccc(-c2n[nH]c3ncc(-c4ccc5c(c4)CC[C@@H](N4C6COCC4C6)CC5)cc23)cc1` [Example 111, 6-[(7S)-2-{3-[4-(1-Methyl-1H-imidazol-2-yl)phenyl]-1H-pyrazolo[3,4-b]pyridin-5-yl}-6,7,8,9-tetrahydro-5H-benzo[7]annulen-7-yl]-3-oxa-6-azabicyclo[3.1.1]heptane], for which the IC50 in assay [1] and in assay [2] was under 100 nM throughout.
Turning to `Cc1cccnc1-c1ccc(-c2n[nH]c3ncc(-c4ccc5c(c4)CC[C@@H](N[C@H]4CCCOC4)CC5)cc23)cc1` [Example 129, (3S)—N-[(7S)-2-{3-[4-(3-Methylpyridin-2-yl)phenyl]-1H-pyrazolo[3,4-b]pyridin-5-yl}-6,7,8,9-tetrahydro-5H-benzo[7]annulen-7-yl]oxan-3-amine], the IC50 in assay [1] and in assay [2] was under 100 nM in each case.
Turning to `Cc1ccnnc1-c1ccc(-c2n[nH]c3ncc(-c4ccc5c(c4)CC[C@@H](N4C6COCC4C6)CC5)cc23)cc1` [Example 176, 6-[(7S)-2-{3-[4-(4-Methylpyridazin-3-yl)phenyl]-1H-pyrazolo[3,4-b]pyridin-5-yl}-6,7,8,9-tetrahydro-5H-benzo[7]annulen-7-yl]-3-oxa-6-azabicyclo[3.1.1]heptane], the IC50 in assay [1] and in assay [2] was under 100 nM each time.
`Cc1ccc(C)c(-c2ccc(-c3n[nH]c4ncc(-c5ccc6c(c5)CC[C@@H](N5C7COCC5C7)CC6)cc34)cc2)n1` [Example 120, 6-[(7S)-2-{3-[4-(3,6-Dimethylpyridin-2-yl)phenyl]-1H-pyrazolo[3,4-b]pyridin-5-yl}-6,7,8,9-tetrahydro-5H-benzo[7]annulen-7-yl]-3-oxa-6-azabicyclo[3.1.1]heptane]: the IC50 in assay [1] and in assay [2] was under 100 nM throughout.
Consider `Cc1ccccc1-c1ccc(-c2n[nH]c3ncc(-c4ccc5c(c4)CC[C@@H](N4C6COCC4C6)CC5)cc23)nc1` [Example 98, 6-[(7S)-2-{3-[5-(2-Methylphenyl)pyridin-2-yl]-1H-pyrazolo[3,4-b]pyridin-5-yl}-6,7,8,9-tetrahydro-5H-benzo[7]annulen-7-yl]-3-oxa-6-azabicyclo[3.1.1]heptane], for which the IC50 in assay [1] was under 100 nM; in assay [2], 100 to 1000 nM.
